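Interpolation was linear, between the two tested concentrations surrounding the appropriate level; five concentrations were tested over 48 hours in 96-well plates. Here, GI50 denotes the concentration required for 50% inhibition of growth.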 Activity calls are given as the source filed them. Cut-off read from the data, not from the text of the source: active = GI50 up to about 1.1 µM and inactive = higher.
Key:
Assay in all cases: NCI anticancer screen, dose series, 48 h
[1] = tested on: ACHN
[2] = tested on: CAKI-1
[3] = tested on: DLD-1
[4] = tested on: EKVX
[5] = tested on: HOP-62
[6] = tested on: HT-29
[7] = tested on: Malme-3M
[8] = tested on: NCI-H226
[9] = tested on: NCI-H460
[10] = tested on: OVCAR-3
[11] = tested on: OVCAR-4
[12] = tested on: RPMI-8226
[13] = tested on: SK-MEL-5
[14] = tested on: SK-OV-3
[15] = tested on: SN12C
[16] = tested on: SNB-19
[17] = tested on: TK-10
[18] = tested on: U-251

Measured: GI50

CC(C)Cc1ccc(C(C)/C=C2\CCC(CN3CCCC3)C2=O)cc1 (configuration not stated)
inactive: [1] 11.7 µM | [2] 13.6 µM | [3] 2.55 µM | [4] 18.2 µM | [5] 12.3 µM | [6] 8.09 µM | [7] 20.4 µM | [8] 18.1 µM | [9] 17.7 µM | [10] 3.69 µM | [11] 13.3 µM | [12] 1.84 µM | [13] 14.8 µM | [14] 19.6 µM | [15] 3.97 µM | [16] 12.4 µM | [17] 3.69 µM | [18] 5.87 µM

Cc1cc(C)nc(NS(=O)(=O)c2ccc(NC(=O)c3ccc(Cl)c4c(Nc5ccc(S(=O)(=O)N=C(N)N)cc5)c5ccccc5nc34)cc2)n1
inactive: [1] > 100 µM | [2] > 100 µM | [3] 7.67 µM | [4] > 100 µM | [5] > 100 µM | [6] 16.4 µM | [7] > 100 µM | [8] > 100 µM | [9] > 10 µM | [10] 44.3 µM | [11] 59.2 µM | [12] 28.1 µM | [13] > 100 µM | [14] > 100 µM | [15] 20.8 µM | [16] > 100 µM | [17] 33.9 µM | [18] 34.8 µM

O=C(Oc1ccc(Cl)cc1[N+](=O)[O-])c1ccccc1
inactive: [1] > 100 µM | [3] > 100 µM | [4] > 100 µM | [5] > 100 µM | [6] > 100 µM | [7] > 100 µM | [8] 92.9 µM | [9] > 100 µM | [10] 69.5 µM | [11] 43.4 µM | [12] 91.4 µM | [13] 16 µM | [14] > 100 µM | [15] > 100 µM | [16] > 100 µM | [17] > 100 µM | [18] 38.5 µM

N=C(N)NS(=O)(=O)c1ccc(NCCc2c3ccccc3nc3ccccc23)cc1
inactive: [1] > 100 µM | [2] 87.1 µM | [3] > 100 µM | [4] > 100 µM | [5] > 100 µM | [6] 64.4 µM | [7] > 100 µM | [8] > 100 µM | [9] > 100 µM | [10] > 100 µM | [11] 1.31 µM | [12] 7.26 µM | [14] > 100 µM | [15] > 100 µM | [16] > 100 µM | [17] > 100 µM | [18] > 100 µM

CCCCN(CCCC)c1c([N+](=O)[O-])c(=O)nc2ccccn12
inactive: [1] 35.2 µM | [2] > 10 µM | [3] 35.4 µM | [4] 32.8 µM | [5] 32.6 µM | [6] 38.1 µM | [7] > 100 µM | [8] 75.3 µM | [9] 24.8 µM | [10] 45.8 µM | [12] 33.4 µM | [13] 33.5 µM | [14] > 100 µM | [15] 34.1 µM | [16] 72.9 µM | [17] 46.9 µM | [18] 38.8 µM

CCC12CCCN(Cc3ccccc3)C1c1c(n(C)c3ccccc13)C(CO)C2 (configuration not stated)
inactive: [2] 92.7 µM | [3] 61.5 µM | [4] 71.9 µM | [5] 37.6 µM | [6] 17.9 µM | [7] 46.6 µM | [8] 34.3 µM | [9] 39.5 µM | [10] 36.1 µM | [12] 37.2 µM | [13] 40.2 µM | [14] 74.1 µM | [15] 42.6 µM | [16] 55.5 µM | [17] 64.9 µM | [18] 49.3 µM

CC(C)=CC1C(C(=O)O)C1(C)C (configuration not stated) [CHRYSANTHEMIC ACID]
inactive: [2] 643 µM | [3] > 750 µM | [4] > 750 µM | [5] > 750 µM | [6] > 750 µM | [7] 746 µM | [8] 75 µM | [9] > 750 µM | [10] > 750 µM | [11] > 750 µM | [12] > 750 µM | [13] > 750 µM | [14] > 750 µM | [15] > 724 µM | [16] > 750 µM | [18] > 750 µM

N#Cc1c2nc3ccccc3nc2n2ccc3ccccc3c12
inactive: [1] > 100 µM | [3] > 100 µM | [4] > 100 µM | [6] > 100 µM | [7] > 100 µM | [8] > 100 µM | [9] > 100 µM | [10] > 100 µM | [11] > 100 µM | [12] > 100 µM | [13] > 100 µM | [14] > 100 µM | [15] > 100 µM | [16] > 100 µM | [17] > 100 µM | [18] > 100 µM

CNC(=O)OCc1c(CO)nc(SC)n1C
inactive: [2] > 100 µM | [3] > 100 µM | [4] > 100 µM | [5] > 100 µM | [6] > 100 µM | [7] > 100 µM | [8] > 100 µM | [9] > 100 µM | [10] > 100 µM | [11] > 100 µM | [12] > 100 µM | [13] > 100 µM | [14] > 100 µM | [15] > 100 µM | [16] > 100 µM | [18] > 100 µM

CCOC(=O)NC(=O)c1c[nH]c(=O)[nH]c1=O
inactive: [1] > 100 µM | [2] > 100 µM | [3] > 100 µM | [4] > 100 µM | [5] > 100 µM | [6] > 100 µM | [7] > 100 µM | [8] > 100 µM | [9] > 100 µM | [10] > 100 µM | [11] > 100 µM | [12] > 100 µM | [13] > 100 µM | [14] > 100 µM | [15] > 100 µM | [16] > 100 µM | [17] > 100 µM | [18] > 100 µM

O=C(CC1(O)C(=O)Nc2c(Cl)cc(Cl)cc21)c1ccc2ccccc2c1 (configuration not stated)
inactive: [1] 14.4 µM | [2] 5.7 µM | [3] 11.6 µM | [4] 9.77 µM | [5] 7.83 µM | [6] 5.25 µM | [7] 6.53 µM | [9] 4.7 µM | [10] 6.18 µM | [11] 13.6 µM | [12] 5.22 µM | [13] 6.11 µM | [14] 10.4 µM | [15] 10.4 µM | [16] 11.4 µM | [17] 14.1 µM | [18] 6.92 µM

COc1ccc(O)c(C#N)c1C#N.COc1ccc(OC)c(C#N)c1C#N
inactive: [2] > 100 µM | [3] > 100 µM | [4] 23.7 µM | [5] > 100 µM | [6] > 100 µM | [7] > 100 µM | [8] > 100 µM | [9] > 100 µM | [10] > 100 µM | [11] > 100 µM | [12] > 100 µM | [13] > 100 µM | [14] > 100 µM | [15] > 100 µM | [16] > 100 µM | [18] > 100 µM
